# Experimental data taken from BindingDB's records for doi:10.1016/j.bmcl.2010.07.082 (Ligand Pharmaceuticals, 2010).
# Experiment: Antagonist activity at CCR1 in human THP1 cells assessed as inhibition of CCL3-induced chemotaxis after 3 hrs
row,Structure (SMILES),IC50 [nM]
1,O=C(Nc1ccc(C(F)(F)F)cc1)N1CCCC1c1nccn1Cc1ccc(Cl)cc1 (stereo not given) [2-(1-(4-chlorobenzyl)-1H-imidazol-2-yl)-N-(4-(trifluoromethyl)phenyl)pyrrolidine-1-carboxamide],16
2,O=C(Nc1ccc(C(F)(F)F)cc1)N1CCC[C@@H]1c1nnnn1Cc1ccc(Cl)cc1 [(R)-2-(1-(4-chlorobenzyl)-1H-tetrazol-5-yl)-N-(4-(trifluoromethyl)phenyl)pyrrolidine-1-carboxamide],6.5
3,"O=C(Nc1ccc(C(F)(F)F)cc1)N1CCC[C@@H]1c1nncn1Cc1ccc(Cl)cc1 [(R)-2-(4-(4-chlorobenzyl)-4H-1,2,4-triazol-3-yl)-N-(4-(trifluoromethyl)phenyl)pyrrolidine-1-carboxamide]",4

# Continued, values first:
row,IC50 [nM],Structure (SMILES)
1,22,"O=C(Nc1ccc(C(F)(F)F)cc1)N1CCC[C@@H]1c1ncnn1Cc1ccc(Cl)cc1 [(R)-2-(1-(4-chlorobenzyl)-1H-1,2,4-triazol-5-yl)-N-(4-(trifluoromethyl)phenyl)pyrrolidine-1-carboxamide]"
2,2.9,"Cc1nnc([C@H]2CCCN2C(=O)Nc2ccc(C(F)(F)F)cc2)n1Cc1ccc(Cl)cc1 [(R)-2-(4-(4-chlorobenzyl)-5-methyl-4H-1,2,4-triazol-3-yl)-N-(4-(trifluoromethyl)phenyl)pyrrolidine-1-carboxamide]"
